PubChem BioAssay (NCI)
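All cell lines were grown in 96-well plates and treated with compound for 48 hours. GI50 marks 50% less growth. TGI denotes the concentration required for complete inhibition of growth.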

Tests used:
Experiment in all cases: NCI tumour cell line growth inhibition, 48 h
M14 melanoma = test system: M14 melanoma
NCI-H522 lung = test system: NCI-H522 lung
UACC-62 melanoma = test system: UACC-62 melanoma
OVCAR-3 ovarian = test system: OVCAR-3 ovarian
COLO 205 colon = test system: COLO 205 colon
UACC-257 melanoma = test system: UACC-257 melanoma
SF-295 CNS = test system: SF-295 CNS
HL-60(TB) leukemia = test system: HL-60(TB) leukemia
OVCAR-5 ovarian = test system: OVCAR-5 ovarian
SW-620 colon = test system: SW-620 colon
HCC-2998 colon = test system: HCC-2998 colon
SF-268 CNS = test system: SF-268 CNS
KM20L2 colon = test system: KM20L2 colon
ACHN renal = test system: ACHN renal
SNB-75 CNS = test system: SNB-75 CNS
UO-31 renal = test system: UO-31 renal
SK-OV-3 ovarian = test system: SK-OV-3 ovarian
A549 NSCLC = test system: A549 NSCLC
SF-539 CNS = test system: SF-539 CNS
KM12 colon = test system: KM12 colon
EKVX NSCLC = test system: EKVX NSCLC
HT29 colon = test system: HT29 colon
SK-MEL-2 melanoma = test system: SK-MEL-2 melanoma
SNB-19 CNS = test system: SNB-19 CNS
HOP-62 NSCLC = test system: HOP-62 NSCLC
NCI-H226 lung = test system: NCI-H226 lung
OVCAR-4 ovarian = test system: OVCAR-4 ovarian
NCI-H23 lung = test system: NCI-H23 lung
OVCAR-8 ovarian = test system: OVCAR-8 ovarian
HCT-116 colon = test system: HCT-116 colon
IGROV1 ovarian = test system: IGROV1 ovarian
HCT-15 colon = test system: HCT-15 colon
RXF 393 renal = test system: RXF 393 renal
CAKI-1 renal = test system: CAKI-1 renal
TK-10 renal = test system: TK-10 renal
NCI-H460 lung = test system: NCI-H460 lung
SR leukemia = test system: SR leukemia
HOP-92 NSCLC = test system: HOP-92 NSCLC
LOX IMVI melanoma = test system: LOX IMVI melanoma
DLD-1 colon = test system: DLD-1 colon
786-0 renal = test system: 786-0 renal
U251 CNS = test system: U251 CNS
M19-MEL melanoma = test system: M19-MEL melanoma
RPMI-8226 leukemia = test system: RPMI-8226 leukemia
MOLT-4 leukemia = test system: MOLT-4 leukemia
MALME-3M melanoma = test system: MALME-3M melanoma
A498 renal = test system: A498 renal
SK-MEL-28 melanoma = test system: SK-MEL-28 melanoma
SN12C renal = test system: SN12C renal
LXFL 529 NSCLC = test system: LXFL 529 NSCLC
K-562 leukemia = test system: K-562 leukemia
DMS 273 small cell lung = test system: DMS 273 small cell lung
DMS 114 small cell lung = test system: DMS 114 small cell lung
CCRF-CEM leukemia = test system: CCRF-CEM leukemia
SK-MEL-5 melanoma = test system: SK-MEL-5 melanoma

## O=C(N/N=C/c1cc(Cl)cc(Cl)c1[O-])c1ccccc1O.O=C(N/N=C/c1cc(Cl)cc(Cl)c1[O-])c1ccccc1O.[Cl-].[Fe+3]
M14 melanoma
  TGI: 35.3 µM
NCI-H522 lung
  TGI: 31.5 µM
UACC-62 melanoma
  TGI: 33.6 µM
OVCAR-3 ovarian
  TGI: 27 µM
COLO 205 colon
  GI50: 19.4 µM
  TGI: 44.4 µM
UACC-257 melanoma
  TGI: 51.2 µM
SF-295 CNS
  TGI: 22.4 µM
HL-60(TB) leukemia
  TGI: 5.22 µM
OVCAR-5 ovarian
  TGI: 26 µM
SW-620 colon
  TGI: 29.9 µM
HCC-2998 colon
  TGI: 23.5 µM
SF-268 CNS
  TGI: 69.8 µM
KM20L2 colon
  GI50: 10.7 µM
  TGI: 24 µM
ACHN renal
  TGI: 38.5 µM
SNB-75 CNS
  TGI: 60.4 µM
UO-31 renal
  TGI: 31.7 µM
SK-OV-3 ovarian
  TGI: 29.2 µM
A549 NSCLC
  GI50: 10.2 µM
  TGI: 63.8 µM
SF-539 CNS
  GI50: 10.5 µM
  TGI: 27.9 µM
KM12 colon
  GI50: 12.6 µM
  TGI: 37.9 µM
EKVX NSCLC
  GI50: 29.3 µM
  TGI: 88.3 µM
HT29 colon
  TGI: 34.8 µM
SK-MEL-2 melanoma
  GI50: 17.1 µM
  TGI: 37.1 µM
SNB-19 CNS
  TGI: 22.7 µM
HOP-62 NSCLC
  TGI: 36.2 µM
NCI-H226 lung
  TGI: 20.5 µM
OVCAR-4 ovarian
  TGI: 26.6 µM
NCI-H23 lung
  GI50: 7.73 µM
  TGI: 25.7 µM
OVCAR-8 ovarian
  TGI: 25.9 µM
HCT-116 colon
  GI50: 5.78 µM
  TGI: 18.9 µM
IGROV1 ovarian
  TGI: 48.4 µM
HCT-15 colon
  TGI: 18.7 µM
RXF 393 renal
  TGI: 23.7 µM
CAKI-1 renal
  TGI: > 100 µM
TK-10 renal
  TGI: > 100 µM
NCI-H460 lung
  TGI: 36 µM
SR leukemia
  TGI: 25.3 µM
HOP-92 NSCLC
  GI50: 1.95 µM
  TGI: 7.18 µM
LOX IMVI melanoma
  TGI: 30.9 µM

## [Cl-].[Nd+3].[O-]/N=C(\c1ccccc1)c1ccccn1.[O-]/N=C(\c1ccccc1)c1ccccn1.[O-]/N=C(\c1ccccc1)c1ccccn1
M14 melanoma
  GI50: 23 µM
  TGI: 45.8 µM
NCI-H522 lung
  GI50: 23 µM
  TGI: 80.1 µM
UACC-62 melanoma
  GI50: 28.7 µM
  TGI: > 100 µM
OVCAR-3 ovarian
  GI50: 17.5 µM
  TGI: > 100 µM
DLD-1 colon
  GI50: 39.6 µM
  TGI: > 100 µM
COLO 205 colon
  GI50: 31.2 µM
  TGI: > 100 µM
786-0 renal
  GI50: 31 µM
  TGI: 82.2 µM
UACC-257 melanoma
  GI50: 33.6 µM
  TGI: 99.3 µM
SF-295 CNS
  GI50: 22.3 µM
  TGI: > 100 µM
HL-60(TB) leukemia
  GI50: 16.5 µM
  TGI: 53.6 µM
OVCAR-5 ovarian
  GI50: 31.2 µM
  TGI: > 100 µM
SW-620 colon
  GI50: 41.1 µM
  TGI: > 100 µM
HCC-2998 colon
  GI50: 36.3 µM
  TGI: > 100 µM
SF-268 CNS
  GI50: 24.8 µM
  TGI: 85.1 µM
KM20L2 colon
  GI50: 39.1 µM
  TGI: > 100 µM
ACHN renal
  GI50: 37.8 µM
  TGI: > 100 µM
SNB-75 CNS
  GI50: 3.78 µM
  TGI: 17.2 µM
UO-31 renal
  GI50: 19.8 µM
  TGI: 56.7 µM
SK-OV-3 ovarian
  GI50: 37.1 µM
  TGI: > 100 µM
A549 NSCLC
  GI50: 33.7 µM
  TGI: > 100 µM
SF-539 CNS
  GI50: 23.8 µM
  TGI: 62.2 µM
U251 CNS
  GI50: 38.9 µM
  TGI: > 100 µM
KM12 colon
  GI50: 38.8 µM
  TGI: > 100 µM
M19-MEL melanoma
  GI50: 25 µM
  TGI: 69.8 µM
EKVX NSCLC
  GI50: 31.1 µM
  TGI: > 100 µM
RPMI-8226 leukemia
  GI50: 39.2 µM
  TGI: > 100 µM
HT29 colon
  GI50: 54.2 µM
  TGI: > 100 µM
SK-MEL-2 melanoma
  GI50: 28 µM
  TGI: 66.4 µM
SNB-19 CNS
  GI50: 35.9 µM
  TGI: > 100 µM
MOLT-4 leukemia
  GI50: 23.8 µM
  TGI: 90.2 µM
HOP-62 NSCLC
  GI50: 24.9 µM
  TGI: > 100 µM
NCI-H226 lung
  GI50: 13.3 µM
  TGI: 45.6 µM
OVCAR-4 ovarian
  GI50: 45.1 µM
  TGI: > 100 µM
MALME-3M melanoma
  GI50: 30 µM
  TGI: 96.9 µM
A498 renal
  GI50: 24.5 µM
  TGI: > 100 µM
NCI-H23 lung
  GI50: 30.3 µM
  TGI: 82.7 µM
OVCAR-8 ovarian
  GI50: 34.1 µM
  TGI: > 100 µM
SK-MEL-28 melanoma
  GI50: 27.3 µM
  TGI: 85.1 µM
HCT-116 colon
  GI50: 37.6 µM
  TGI: > 100 µM
IGROV1 ovarian
  GI50: 30.6 µM
  TGI: > 100 µM
HCT-15 colon
  GI50: 31.7 µM
  TGI: > 100 µM
SN12C renal
  GI50: 37.2 µM
  TGI: > 100 µM
LXFL 529 NSCLC
  GI50: 40.4 µM
  TGI: > 100 µM
CAKI-1 renal
  GI50: 30.6 µM
  TGI: > 100 µM
K-562 leukemia
  GI50: 34.4 µM
  TGI: > 100 µM
DMS 273 small cell lung
  GI50: 26.9 µM
  TGI: 97 µM
TK-10 renal
  GI50: 37.5 µM
  TGI: > 100 µM
NCI-H460 lung
  GI50: 29.4 µM
  TGI: > 100 µM
DMS 114 small cell lung
  GI50: 24.6 µM
  TGI: 79 µM
CCRF-CEM leukemia
  GI50: 16.4 µM
  TGI: 95.3 µM
HOP-92 NSCLC
  GI50: 25 µM
  TGI: 98.3 µM
LOX IMVI melanoma
  GI50: 22.6 µM
  TGI: 58 µM
SK-MEL-5 melanoma
  GI50: 22.6 µM
  TGI: 55.4 µM
